Measured values reported in paper PMC3572379, “Pharmacokinetic and pharmacodynamic effects of comedication of clopidogrel and dabigatran etexilate in healthy male volunteers” (European Journal of Clinical Pharmacology, 2012).
Where two headings read alike, the source gives them in different places. Marks after values point to notes of the source that are not given here.

Assays:
[1] = Plasma pharmacokinetics (HPLC-MS/MS) in open-label drug–drug interaction trial
Description: The treatment phase was divided into three separate parts, each with a different set of subjects. Part 1 (pilot study) was an open-label, multiple-dose (for dabigatran etexilate) and single-dose (for clopidogrel), fixed-sequence study. A single dose of clopidogrel 300 mg was given in addition to dabigatran etexilate 150 mg bid in steady state (Table 1). Part 2 (main study) was a randomized, open-label, multiple-dose, crossover study, with three periods of up to 5 days separated by washout periods of at least 14 days. The test treatment consisted of a clopidogrel 300 mg loading dose on day 1, followed by a 75 mg dose on day 2, then clopidogrel 75 mg qd in combination with dabigatran etexilate 150 mg bid on days 3–5 (Table 1). Part 3 (main study) was an open-label, multiple-dose (for dabigatran etexilate) and single-dose (for clopidogrel), fixed-sequence study. A single dose of clopidogrel 600 mg was given alone or in addition to dabigatran 150 mg bid at steady state (Table 1).
Although there are no reported interactions of food with dabigatran etexilate or clopidogrel, the morning medication was administered with about 240 mL of water following an overnight fast of at least 10 h, and no food was allowed until 4 h after drug administration. According to the twice-daily regimen dabigatran etexilate was similarly administered again 12 h later. Subjects were not allowed to lie down during the 2 h following drug administration, and water was limited for 1 h before and after drug administration. On dosing days a light non-standardized breakfast was given 1 h after morning drug administration. On profile days, no food was given until 4 h after administration. No concomitant therapy was allowed during the study, except for prophylactic thyroid hormone replacement and for symptomatic therapy of adverse events (AEs) in need of treatment.
For PK parameter evaluations, blood samples were taken for the determination of plasma concentrations of free, nonconjugated dabigatran, total dabigatran (after alkaline cleavage of conjugates), and the prodrug dabigatran etexilate, and of clopidogrel and SR26334.
Blood samples were taken before and at specified intervals up to 24 h after the morning clopidogrel dose, and before and up to 24 h after the morning and evening dabigatran etexilate dose. Timings of PK/PD sampling are shown in Supplementary Table 1.
Blood samples (∼2.7 mL for dabigatran and ∼4.0 mL for clopidogrel) were collected into tubes containing potassium ethylenediaminetetraacetic acid for PK analysis. Samples were centrifuged, and the resulting plasma samples were separated and stored at −70°C or below.
Plasma concentrations of free, nonconjugated dabigatran; total dabigatran (sum of free and conjugated dabigatran measured after alkaline cleavage of conjugates); the prodrug dabigatran etexilate; clopidogrel; and SR26334 were determined by validated high-performance liquid chromatography tandem mass spectrometry (HPLC-MS/MS) at AAI Pharma Deutschland (Neu-Ulm, Germany). The calibration curves for free and total dabigatran covered a range from 1.00 to 400 ng/mL plasma in undiluted samples. […] Maximum imprecision and inaccuracy for quality control samples at concentrations of 3, 30, and 320 ng/mL were 6.62 and +5.86%, respectively. For the prodrug, maximum imprecision and inaccuracy were 6.63 and +2.83%, respectively.
Calibration curves for clopidogrel and SR26334 covered concentration ranges of 0.01–10 ng/mL and 0.02–20 μg/mL, respectively, with an inaccuracy generally below 4% and imprecision below 9%. For blood coagulation parameters aPTT, ECT, and TT (PD analyses), ∼3 mL of blood were collected in sodium citrate monovettes at the time points indicated for PK analyses. The blood samples were centrifuged, frozen, and stored at −20°C or below.

[2] = system: ADP-induced platelet aggregation; assay: ADP-induced inhibition of platelet aggregation (light transmission aggregometry in citrated PRP); type: in vivo, healthy male subjects; conditions: for Emax: Homo sapiens, Platelet
Description: The primary endpoints for PD were area under the effect curve of ADP-induced inhibition of platelet aggregation (IPA) at steady state of clopidogrel over one dosing interval from 0–24 h after dosing (AUECIPA,τ,ss); maximum percentage change compared with baseline in ADP-induced platelet aggregation at steady state of clopidogrel (Emax,IPA,ss); AUEC from 0 to 24 h (AUECIPA,0–24) after the loading dose of clopidogrel 600 mg; and the maximum percentage change compared with baseline in ADP-induced platelet aggregation from 0 to 24 h (Emax,IPA,0–24) after the loading dose of clopidogrel 600 mg.
The following PD parameters were also evaluated: • For clopidogrel, ADP-induced IPA was determined at predefined time points. • Capillary bleeding times were assessed (part 2 and part 3 of the study) before clopidogrel administration, 2, 4, and 12 h after clopidogrel administration, and following administration of dabigatran etexilate alone.
For platelet aggregation testing, ∼9 mL of blood was collected into a 10 mL monovette containing citrate to yield a final concentration of 10.6 mM. Platelet-rich plasma (PRP) was prepared by centrifugation and removed from the red-cell sediment. Approximately 0.5 mL platelet-poor plasma (PPP) was prepared from PRP by further centrifugation. Inhibition of platelet aggregation was performed by light transmission aggregometry in citrated PRP, using an 8-channel platelet aggregation profiler (PAP 8) aggregometer (möLab, Germany). The PRP (0% light transmission) and PPP (100% light transmission) served as reference. After baseline adjustment, ADP in a final concentration of 20 μM was added and aggregation recorded for 6 min. Maximum aggregation (%) within the first 6 min after addition of ADP was determined.

[3] = system: blood coagulation parameters (aPTT, ECT, TT); assay: Blood coagulation parameters aPTT, ECT and TT (anti-factor IIa); type: in vivo, healthy male subjects
Description: The secondary endpoints included other PK parameters and the effects of clopidogrel on the PD of dabigatran assessed by ECT, aPTT, TT (including maximum effect ratio, ERmax) as well as the CBT.
Calibration curves for clopidogrel and SR26334 covered concentration ranges of 0.01–10 ng/mL and 0.02–20 μg/mL, respectively, with an inaccuracy generally below 4% and imprecision below 9%. For blood coagulation parameters aPTT, ECT, and TT (PD analyses), ∼3 mL of blood were collected in sodium citrate monovettes at the time points indicated for PK analyses. The blood samples were centrifuged, frozen, and stored at −20°C or below. The aPTT, ECT, and TT parameters were analyzed on an MC10PLUS coagulometer using validated methods by BiochemA, Riegel, Germany. aPTT was measured using a kit from Roche Diagnostics (Mannheim, Germany) according to manufacturer’s instructions, and the ECT assay utilized ecarin from Pentapharm (Basel, Switzerland). Thrombin inhibition (TT), anti-factor IIa, was measured by the Hemoclot Thrombin Inhibitors Assay® (Hemoclot® TT #CK002K, HYPHEN BioMed, Neuville-sur-Oise, France) according to the manufacturer’s instructions. The Hemoclot kit was used for the quantitative measurement of direct thrombin inhibitors in plasma, with a clotting method based on the inhibition of a constant and defined concentration of thrombin.
AUEC and ERmax of aPTT, ECT, and TT as well as CBT, and safety and tolerability were assessed descriptively as secondary parameters.

[4] = Capillary bleeding time (Surgicutt device); type: in vivo, healthy male subjects; conditions: for maximum capillary bleeding time (CBT): part 2
Description: The bleeding time was assessed by single measurements on the forearm using the Surgicutt® Bleeding Time Device (Product Number SUB50, International Technidyne, Edison, NJ, USA). Using a Surgicutt device, a standardized incision of 5 mm length and 1 mm depth was made in the skin. Every 30 s, the blood flow was wicked away cautiously with filter paper, so that the platelet plug remained intact, until the bleeding stopped. Normal bleeding time was under 8 min. For the CBT individual listings including the baseline value, the maximum value of the post-dose measurements, and the corresponding time of the maximum value were provided.

[5] = Safety and tolerability assessment; type: in vivo, healthy male subjects
[6] = cited from earlier work
[7] = system: P-gp; conditions: cited from earlier work
[8] = cited from earlier work; remark: listed apart in the source
[9] = male, human, in vivo, po, 75 mg
[10] = male, human, in vivo, po, 600 mg
[11] = part 2, clopidogrel 75 mg qd + DE 150 mg bid vs clopidogrel 75 mg qd
[12] = part 3, clopidogrel 600 mg + DE 150 mg bid vs clopidogrel 600 mg
[13] = part 3, reference: clopidogrel 600 mg single dose, n 12
[14] = part 2, reference: clopidogrel 75 mg qd alone, n=23
[15] = part 2, test: clopidogrel 75 mg qd + DE 150 mg bid, n=21, clopidogrel metabolite
[16] = part 3, DE 150 mg bid + clopidogrel 600 mg vs clopidogrel 600 mg

COC(=O)[C@H](c1ccccc1Cl)N1CCc2sccc2C1 [Clopidogrel, clopidogrel]
AUCτ,ss, gMean [1, 9]: 1400^b pg·h/mL | Cmax,ss, gMean [1, 9]: 0.625 ng/mL | AUC0-24, gMean [1, 10]: 10.574 ng·h/mL | CL/Fss, gMean [1, 10]: 911000 mL/min | Cmax, gMean [1, 10]: 4.013 ng/mL | Emax ([2]; part 1, after single dose clopidogrel 300 mg, data not shown, read-out: maximum inhibition of ADP-dependent platelet aggregation (Emax)): ~50% | Emax ([2]; part 2, reference: clopidogrel 75 mg qd, n 23, read-out: Emax, ss, mean (maximum percentage change in ADP-induced platelet aggregation)): 58.8% | Emax ([2]; part 2, test: clopidogrel 75 mg qd + DE 150 mg bid, n 21, read-out: Emax, ss, mean (maximum percentage change in ADP-induced platelet aggregation)): 55.1% | Emax ([2]; part 3, reference: clopidogrel 600 mg single dose, n 12, read-out: Emax, mean (maximum percentage change in ADP-induced platelet aggregation)): ~60% | Emax ([2]; part 3, test: clopidogrel 600 mg + DE 150 mg bid, n 11, read-out: Emax, mean (maximum percentage change in ADP-induced platelet aggregation)): 66.8% | AUECIPA, τ,ss difference test – reference [2, 11]: −39.7 %·h | AUECIPA, τ,ss difference test – reference, relative [2, 11]: −8.0% | AUECIPA, τ,ss, mean ([2]; part 2, reference: clopidogrel 75 mg qd, n 21): 496 %·h | AUECIPA, τ,ss, mean ([2]; part 2, test: clopidogrel 75 mg qd + DE 150 mg bid, n 21): 456 %·h | AUEC0–24h difference test – reference [2, 12]: −84.6 %·h | AUEC0–24h difference test – reference, relative [2, 12]: −6.7% | AUEC0–24h of IPA, mean [2, 13]: 1264 %·h | Emax, mean (maximum percentage change in ADP-induced platelet aggregation) [2, 13]: 66.0% | AUEC0–24h of IPA, mean ([2]; part 3, reference: clopidogrel 600 mg single dose, n 12, listed as clopidogrel): 1,264 %·h | AUEC0–24h of IPA, mean ([2]; part 3, test: clopidogrel 600 mg + DE 150 mg bid, n 11): 1179 %·h | AUEC0–24h of IPA, mean ([2]; part 3, test: clopidogrel 600 mg + DE 150 mg bid, n 11, listed as clopidogrel): 1,179 %·h | effect on dabigatran PK/PD relationship (TT, ECT, aPTT vs plasma concentration) ([3]; part 2, DE given alone or in combination with clopidogrel): No effect | maximum capillary bleeding time (CBT) [4]: prolonged | AEs considered related to the study drugs ([5]; one subject each, parts 2 and 3): hematoma | bleeding time, overall least square means [6]: 1.96 times baseline | substrate of P-gp [7]: substrate of P-gp

O=C(O)[C@H](c1ccccc1Cl)N1CCc2sccc2C1 [SR26334]
AUC0–24 ([1]; part 1, clopidogrel 300 mg single dose with DE 150 mg bid): 35,400 pg h/mL | AUCτ,ss ratio test/reference, gMean [1, 11]: 110% | Cmax,ss ratio test/reference, gMean [1, 11]: 103% | AUCτ,ss, gMean [1, 14]: 8008 ng·h/mL | Cmax,ss, gMean [1, 14]: 2689 ng/mL | AUCτ,ss, gMean [1, 15]: 8807 ng·h/mL | Cmax,ss, gMean [1, 15]: 2760 ng/mL | AUC0-24 ratio test/reference, gMean [1, 16]: 97.8% | Cmax ratio test/reference, gMean [1, 16]: 85.7% | AUC0-24, gMean ([1]; part 3, reference: clopidogrel 600 mg alone, n=12): 84.3 ng·h/mL | AUC0-24, gMean ([1]; part 3, test: DE 150 mg bid + single dose clopidogrel 600 mg): 82.5 ng·h/mL

CCCCCCOC(=O)NC(=N)c1ccc(NCc2nc3cc(C(=O)N(CCC(=O)OCC)c4ccccn4)ccc3n2C)cc1 [dabigatran etexilate]
effect of coadministration on maximum ADP-dependent platelet aggregation achieved after clopidogrel ([2]; DE 150 mg coadministered, after single dose clopidogrel 300 mg): did not alter | increase in gMean AUECτ,ss of aPTT ([3]; part 1, DE 150 mg bid steady state with single dose clopidogrel 300 mg vs DE alone): about 30% | AUEC τ,ss and ERmax,ss of TT, ECT and aPTT after concomitant administration ([3]; part 2, clopidogrel 75 mg qd (300 mg loading dose) + DE 150 mg bid): not altered | change in AUECτ,ss of aPTT ([3]; part 3, DE 150 mg bid with single dose clopidogrel 600 mg vs DE alone): approximately 36.5% | dabigatran-related effect on TT, ECT and aPTT when clopidogrel coadministered ([3]; part 3, single dose clopidogrel 600 mg coadministered with DE 150 mg bid): slightly increased | CBT on coadministration compared with clopidogrel alone ([4]; part 3, DE 150 mg bid with clopidogrel 600 mg vs single dose clopidogrel 600 mg alone): did not increase | overall safety ([5]; given alone or in combination with clopidogrel): did not seem to cause any safety issues | substrate for P-gp [7]: is a substrate for P-gp

[H]/N=C(/N)c1ccc(NCc2nc3cc(C(=O)N(CCC(=O)O)c4ccccn4)ccc3n2C)cc1 [dabigatran]
increase in bioavailability (AUCτ,ss) ([1]; male, human, in vivo): 32% | effect on coagulation parameters (aPTT, ECT, anti-factor IIa) when clopidogrel added ([3]; part 1, single dose clopidogrel 300 mg added to steady-state DE 150 mg bid): slightly increased | maximum capillary bleeding time (CBT) [4]: did not prolong | glucuronide conjugates as share of total dabigatran in plasma [8]: about 20% | half-life ([8]; multiple-dose administration): 14 to 17 h | half-life ([8]; single-dose administration): 8 to 10 h | substrate for P-gp [7]: not

O=C(NC[C@H]1CN(c2ccc(N3CCOCC3=O)cc2)C(=O)O1)c1ccc(Cl)s1 [rivaroxaban]
bleeding time, overall least square means [6]: 1.13 times baseline

CCOC(=O)CN[C@@H](C(=O)N1CC[C@H]1C(=O)NCc1ccc(/C(N)=N\O)cc1)C1CCCCC1 [ximelagatran]
further prolongation of CBT ([6]; phase I trial, in combination with acetylsalicylic acid (ASA) compared with ASA alone): about 40%
